Experimental data published in patent US20220096516A1, “OLIGONUCLEOTIDE MOLECULE AND APPLICATION THEREOF IN TUMOR THERAPY” (Ractigen Therapeutics, priority 2019, published 2022).
d = 2'-deoxy (DNA); r = 2'-OH (RNA)

Test system: LHPP gene
Test: High-throughput screening of saRNAs targeting LHPP promoter: LHPP mRNA by one-step RT-qPCR in Huh7 cells
Type: cell-based, human
Conditions: 10 nM saRNA, 72 hours, relative to control (Mock)
Procedure, shortened: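 LHPP transcript level relative to mock, normalised to the geometric mean of the HPRT1 and TBP reference genes, measured by one-step RT-qPCR on crude lysates. Huh7 cells had been RNAiMax-transfected with each saRNA at 10 nM for 72 h.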

Row | Substance | Fold of changes in relative LHPP mRNA expression level | Fold of changes in relative LHPP mRNA expression level (log2)
1 | RAG7-917: saRNA duplex; sense UCUCUUCUUUGAAAGCUCATT (SEQ ID NO: 64), antisense UGAGCUUUCAAAGAAGAGATT (SEQ ID NO: 228) (sugars from the 5' end r19 d2, backbone not given here) | 1.32 fold | 0.40 log2
2 | RAG7-879: saRNA duplex; sense GUAAAGUGUUCUCGUUUCUTT (SEQ ID NO: 40), antisense AGAAACGAGAACACUUUACTT (SEQ ID NO: 204) (sugars from the 5' end r19 d2, backbone not given here) | 1.44 fold | 0.53 log2
3 | RAG7-778: saRNA duplex; sense UGUAGCAUCGAGUGGUAUUTT (SEQ ID NO: 70), antisense AAUACCACUCGAUGCUACATT (SEQ ID NO: 234) (sugars from the 5' end r19 d2, backbone not given here) | 1.29 fold | 0.37 log2
4 | RAG7-113: saRNA duplex; sense CUGGGAAGAAAGCUUCCGATT (SEQ ID NO: 120), antisense UCGGAAGCUUUCUUCCCAGTT (SEQ ID NO: 284) (sugars from the 5' end r19 d2, backbone not given here) | 1.18 fold | 0.24 log2
5 | RAG7-715: saRNA duplex; sense GUCCCGUUUUCUUCUCAGCTT (SEQ ID NO: 148), antisense GCUGAGAAGAAAACGGGACTT (SEQ ID NO: 312) (sugars from the 5' end r19 d2, backbone not given here) | 1.13 fold | 0.18 log2
6 | RAG7-196: saRNA duplex; sense CAGGUGCCUUCUUGUCUCATT (SEQ ID NO: 38), antisense UGAGACAAGAAGGCACCUGTT (SEQ ID NO: 202) (sugars from the 5' end r19 d2, backbone not given here) | 1.45 fold | 0.54 log2
7 | RAG7-905: saRNA duplex; sense AAGCUCAAAGCUAUGUUGGTT (SEQ ID NO: 92), antisense CCAACAUAGCUUUGAGCUUTT (SEQ ID NO: 256) (sugars from the 5' end r19 d2, backbone not given here) | 1.24 fold | 0.31 log2
8 | RAG7-31: saRNA duplex; sense UGCACCCGGUCUUCUUGCCTT (SEQ ID NO: 94), antisense GGCAAGAAGACCGGGUGCATT (SEQ ID NO: 258) (sugars from the 5' end r19 d2, backbone not given here) | 1.23 fold | 0.30 log2
9 | RAG7-160: saRNA duplex; sense CUUAGGGACUUGUUUUCUGTT (SEQ ID NO: 153), antisense CAGAAAACAAGUCCCUAAGTT (SEQ ID NO: 317) (sugars from the 5' end r19 d2, backbone not given here) | 1.11 fold | 0.15 log2
10 | RAG7-709: saRNA duplex; sense UUUUCUUCUCAGCCCAGGUTT (SEQ ID NO: 126), antisense ACCUGGGCUGAGAAGAAAATT (SEQ ID NO: 290) (sugars from the 5' end r19 d2, backbone not given here) | 1.17 fold | 0.22 log2
11 | RAG7-681: saRNA duplex; sense CCUCAUCUAUGCAGGGCUGTT (SEQ ID NO: 149), antisense CAGCCCUGCAUAGAUGAGGTT (SEQ ID NO: 313) (sugars from the 5' end r19 d2, backbone not given here) | 1.13 fold | 0.17 log2
12 | RAG7-908: saRNA duplex; sense UGAAAGCUCAAAGCUAUGUTT (SEQ ID NO: 31), antisense ACAUAGCUUUGAGCUUUCATT (SEQ ID NO: 195) (sugars from the 5' end r19 d2, backbone not given here) | 1.49 fold | 0.57 log2
13 | RAG7-884: saRNA duplex; sense CAGAAGUAAAGUGUUCUCGTT (SEQ ID NO: 101), antisense CGAGAACACUUUACUUCUGTT (SEQ ID NO: 265) (sugars from the 5' end r19 d2, backbone not given here) | 1.22 fold | 0.28 log2
14 | RAG7-738: saRNA duplex; sense CCUGGGUUUAACGCAUUGUTT (SEQ ID NO: 159), antisense ACAAUGCGUUAAACCCAGGTT (SEQ ID NO: 323) (sugars from the 5' end r19 d2, backbone not given here) | 1.11 fold | 0.15 log2
15 | RAG7-916: saRNA duplex; sense CUCUUCUUUGAAAGCUCAATT (SEQ ID NO: 33), antisense UUGAGCUUUCAAAGAAGAGTT (SEQ ID NO: 197) (sugars from the 5' end r19 d2, backbone not given here) | 1.48 fold | 0.56 log2
16 | RAG7-741: saRNA duplex; sense CCUCCUGGGUUUAACGCAUTT (SEQ ID NO: 95), antisense AUGCGUUAAACCCAGGAGGTT (SEQ ID NO: 259) (sugars from the 5' end r19 d2, backbone not given here) | 1.23 fold | 0.30 log2
17 | RAG7-151: saRNA duplex; sense UUGUUUUCUGCUUUUCCUGTT (SEQ ID NO: 100), antisense CAGGAAAAGCAGAAAACAATT (SEQ ID NO: 264) (sugars from the 5' end r19 d2, backbone not given here) | 1.22 fold | 0.28 log2
18 | RAG7-168: saRNA duplex; sense UGACCUUUCUUAGGGACUUTT (SEQ ID NO: 91), antisense AAGUCCCUAAGAAAGGUCATT (SEQ ID NO: 255) (sugars from the 5' end r19 d2, backbone not given here) | 1.24 fold | 0.31 log2
19 | RAG7-890: saRNA duplex; sense UUGGACCAGAAGUAAAGUGTT (SEQ ID NO: 76), antisense CACUUUACUUCUGGUCCAATT (SEQ ID NO: 240) (sugars from the 5' end r19 d2, backbone not given here) | 1.28 fold | 0.36 log2
20 | RAG7-776: saRNA duplex; sense UAGCAUCGAGUGGUAUUUUTT (SEQ ID NO: 56), antisense AAAAUACCACUCGAUGCUATT (SEQ ID NO: 220) (sugars from the 5' end r19 d2, backbone not given here) | 1.35 fold | 0.44 log2
21 | RAG7-721: saRNA duplex; sense GUGAUAGUCCCGUUUUCUUTT (SEQ ID NO: 133), antisense AAGAAAACGGGACUAUCACTT (SEQ ID NO: 297) (sugars from the 5' end r19 d2, backbone not given here) | 1.16 fold | 0.21 log2
22 | RAG7-149: saRNA duplex; sense GUUUUCUGCUUUUCCUGCUTT (SEQ ID NO: 99), antisense AGCAGGAAAAGCAGAAAACTT (SEQ ID NO: 263) (sugars from the 5' end r19 d2, backbone not given here) | 1.22 fold | 0.29 log2
23 | RAG7-691: saRNA duplex; sense UCCUAUGCAUCCUCAUCUATT (SEQ ID NO: 30), antisense UAGAUGAGGAUGCAUAGGATT (SEQ ID NO: 194) (sugars from the 5' end r19 d2, backbone not given here) | 1.50 fold | 0.58 log2
24 | RAG7-103: saRNA duplex; sense AGCUUCCGAAAAGGACACCTT (SEQ ID NO: 72), antisense GGUGUCCUUUUCGGAAGCUTT (SEQ ID NO: 236) (sugars from the 5' end r19 d2, backbone not given here) | 1.29 fold | 0.37 log2
25 | RAG7-678: saRNA duplex; sense CAUCUAUGCAGGGCUGUUATT (SEQ ID NO: 63), antisense UAACAGCCCUGCAUAGAUGTT (SEQ ID NO: 227) (sugars from the 5' end r19 d2, backbone not given here) | 1.33 fold | 0.41 log2
26 | RAG7-193: saRNA duplex; sense GUGCCUUCUUGUCUCAAUUTT (SEQ ID NO: 113), antisense AAUUGAGACAAGAAGGCACTT (SEQ ID NO: 277) (sugars from the 5' end r19 d2, backbone not given here) | 1.19 fold | 0.26 log2
27 | RAG7-119: saRNA duplex; sense GAUCUCCUGGGAAGAAAGCTT (SEQ ID NO: 57), antisense GCUUUCUUCCCAGGAGAUCTT (SEQ ID NO: 221) (sugars from the 5' end r19 d2, backbone not given here) | 1.35 fold | 0.43 log2
